Values quoted from earlier work as cited in US20250357519A1, “APPLICATIONS OF O2-INSENSITIVE FORMATE DEHYDROGENASE” (UNIVERSITY OF MARYLAND, BALTIMORE, priority 2022, published 2025).
Where two headings read alike, the source gives them in different places.

System: Desulfovibrio vulgaris Hildenborough (DvH) FDH2, wild-type natively-purified (FDH2^WT), large subunit DVU2482 SEQ ID NO: 31, small subunit DVU2481 SEQ ID NO: …
Conditions: cited from earlier work
[1] = BV (2 mM), anaerobic, 1 replicate, da Silva et al (2011), Table 4
[2] = pH 7.6, RT, 2 mM BV, 0.48 nM enzyme, Da Silva et al (2011)

Q: Which Km [1] does the source give for `O=CO` [formate] here?
A: 4 µM

Q: What about the kcat [1] of the same compound?
A: 81 s⁻¹

Q: And the Km [2]?
A: 4 µM

Q: What about the kcat [2] of the same compound?
A: 81 s⁻¹
